Data reported in publication PMC10449632, “Structural basis for translation inhibition by the glycosylated drosocin peptide” (Nature Chemical Biology, 2023).
No end group written: not given here. *: point of attachment. β‑D‑cellobiosyl = OC[C@H]1O[C@@H](O[C@H]2[C@H](O)[C@@H](O)[C@H](*)O[C@@H]2CO)[C@H](O)[C@@H](O)[C@@H]1O; β‑D‑lactosyl = OC[C@H]1O[C@@H](O[C@H]2[C@H](O)[C@@H](O)[C@H](*)O[C@@H]2CO)[C@H](O)[C@@H](O)[C@H]1O; β‑D‑maltosyl = OC[C@H]1O[C@H](O[C@H]2[C@H](O)[C@@H](O)[C@H](*)O[C@@H]2CO)[C@H](O)[C@@H](O)[C@@H]1O; α‑D‑GlcNAc = CC(=O)N[C@@H]1[C@@H](O)[C@H](O)[C@@H](CO)O[C@@H]1*; βGlc = OC[C@H]1O[C@@H](*)[C@H](O)[C@@H](O)[C@@H]1O; βGal = OC[C@H]1O[C@@H](*)[C@H](O)[C@@H](O)[C@H]1O

Assays:
[1] = system: in vitro translation, E. coli PURExpress system, firefly luciferase (Fluc) mRNA; conditions: using the same system; cited from earlier work
Description: Unmodified wild-type drosocin and Dro-3P have been reported to inhibit in vitro translation reactions[25],[26]; however, the naturally occurring glycosylated forms of drosocin have not been previously tested. To investigate this, we compared the effect of increasing concentrations (0–150 μM) of modified Dro1 and Dro2 with unmodified Dro, Dro-3P and Api137 using a cell-free in vitro translation system and firefly luciferase (Fluc) mRNA as a template (Fig. 1e), as we have used previously for assessing the activity of other PrAMPs[4],[6],[8],[9],[32],[33].

[2] = system: E. coli Keio wt (BW25113); test: Antibiotic susceptibility (growth) assay, E. coli Keio wild-type; assay type: cell-based, Escherichia coli; conditions: 30 μM peptide; for Average of normalized growth: average of three biological replicates; for growth inhibition in rich medium: rich (LB) medium
Excerpt: (§1) Many PrAMPs use the SbmA transporter to pass through the E. coli inner membrane[4],[10],[31]; however, whether drosocin also uses SbmA remains, to our knowledge, unknown. To address this, we monitored the effect of the presence of diverse drosocin peptides (Fig. 1a,b and Supplementary Fig. 1a) on the growth of the wild-type E. coli strain BW25113 containing SbmA or lacking SbmA (ΔsbmA) (Fig. 1c,d). We compared unmodified drosocin (Dro) with various modified forms (Fig. 1a,b). The modified forms included the naturally occurring Dro1 and Dro2 that carry either a monosaccharide (α-D-GalNAc) or disaccharide (β-D-Gal(1→3)-α-D-GalNAc) attached to Thr11, respectively (Fig. 1b). In addition, we examined the previously reported[23],[24] drosocin derivatives bearing β-D-Maltosyl (Dro3), α-D-GlcNAc (Dro4), β-D-Gal (Dro5), β-D-Glc (Dro6), β-D-Lactosyl (Dro7) and β-D-Cellobiosyl (Dro8) modifications on Thr11 (Fig. 1a,b and Supplementary Fig. 1a). Finally, we also included in our analysis the synthetic unmodified drosocin derivative with proline substitutions at positions 7, 11 and 12 (Dro-3P) (Fig. 1a), which was previously reported to have similar antimicrobial activity to the monosaccharide form of drosocin[25]. Growth was monitored in both rich (LB) and minimal medium in the presence of 30 μM of each peptide and normalized with the growth in the absence of the compounds (Methods). […] We also observed no inhibition for Dro2 nor for any of the β-linked disaccharides (Dro3, Dro6 or Dro7). […] By contrast, all drosocin peptides inhibited growth of the E. coli BW25113 strain in minimal medium, albeit to different extents (Fig. 1d).
(§2) Strains E. coli Keio wild-type and E. coli Keio ΔsbmA used from the Keio knockout collection (Horizon, https://horizondiscovery.com). Wild-type E. coli SQ110 (ΔrrnGADBHC(ptRNA67))[47] and SQ171 (ΔrrnGADEHBC(pKK3535, ptRNA67))[47] strains and related mutants E. coli SQ110 A2059G and E. coli SQ171 A2503G were obtained from the previous Api137 study. E. coli strains SQ171 bearing A752G, U2609C and A752G:U2609C mutations[43] and E. coli SQ171 U2609G[48] were generated previously.
(§3) The susceptibility of E. coli strains to compounds was evaluated by monitoring the bacterial growth in presence of increasing concentrations of the compound of interest. In brief, bacteria were inoculated in a total volume of 100 μl of medium contained in a well of a 96-well microplate (round bottom, with cap, sterile; Sarstedt). The medium used was either LB, as rich medium, or ATCC medium (778 Davis and Mingioli glucose minimal medium), as minimal medium. Before inoculation, bacteria were grown up to exponential phase and then inoculated into the culture mix, containing selective antibiotic if necessary, with an initial optical density at 600 nm (OD600) of 0.05. Values measured from wells containing just the medium were used as a blank. The growth in each well was monitored by measuring the OD600 every 10 minutes for a total of 20 hours at 37 °C with shaking using a plate reader (Tecan Infinite 200 PRO). The inhibition resulting from a compound’s concentration was evaluated by normalizing the OD600 at t = 12 hours (corresponding to the end of the log phase) from the treated culture to the untreated one. For each compound, the concentrations tested were 5 μM, 10 μM and 30 μM. Each single titration assay was done in triplicate with individually prepared culture mixes. For each concentration, the standard deviation was calculated, taking into account each single replica and its specific technical error from the plate reader.

[3] = system: ribosomes at the stop codon of MLIF-UAA mRNA in the presence of RF1; test: Toeprinting assay on MLIF*-mRNA with RF1; assay type: biochemical, Escherichia coli; conditions: for Relative stop band intensity signal: 30 μM compound, MLIF*-mRNA, plotted values
Description: (§4) To ascertain which step during protein synthesis is affected by drosocin, we performed toeprinting assays, where reverse transcription is used to monitor the position of ribosomes on a defined mRNA[34].
(§5) Toeprinting reactions were performed as described previously. In brief, reactions were performed with 6 μl of PURExpress ΔRF123 in vitro protein synthesis system (NEB) in the presence of 1× RF3 and either 1× or 10× of RF1 or RF2 (relative to the manufacturer’s recommendation). The reactions were carried out on an MLIF-UAA-toeprint template (5′-[…]-3′, ORF start codon and stop codon are underlined bold), containing T7 promoter, a ribosome binding site, an MLIF-coding ORF and the NV1* primer binding site. The template is a version of the ErmBL template with a truncated ORF and addition of a isoleucine coding codon at the third position in the ORF. The template was generated by polymerase chain reaction of two overlapping 77-nt- and 78-nt-long primers. The reactions contained 30 ng of the MLIF-UAA-toeprint DNA template. The reactions were supplemented with Api137, thiostrepton or one of the drosocin derivates as specified. The transcription–translation reactions were incubated for 15 minutes at 37 °C. The reverse transcription on the MLIF-short-UAA toeprint template was carried out using AMV RT and primer NV*1-Alexa 647 (5′-[…]-3′). The transcription–translation reactions were incubated with AMV RT and NV*1-Alexa 647 for 20 minutes at 37 °C. mRNA degradation was carried out by the addition of 1 µl of 5 M NaOH. The reactions were neutralized with 0.7 µl of 25% HCl, and nucleotide removal was performed with the QIAquick Nucleotide Removal Kit (Qiagen). The samples were dried under vacuum for 2 hours at 60 °C for subsequent gel electrophoresis. The 6% acrylamide gels were scanned on a Typhoon scanner (GE Healthcare).

[4] = system: ribosomes at the stop codon of MLIF-UAA mRNA in the presence of RF2; test: Toeprinting assay on MLIF*-mRNA with RF2; assay type: biochemical, Escherichia coli; conditions: Fig 1h, RF2 (10X), 30 μM compound, plotted values
Description: as §4, §5

[5] = system: in vitro translation, E. coli PURExpress system, firefly luciferase (Fluc) mRNA; test: In vitro translation assay with Fluc reporter; assay type: biochemical, Escherichia coli
Description: To investigate this, we compared the effect of increasing concentrations (0–150 μM) of modified Dro1 and Dro2 with unmodified Dro, Dro-3P and Api137 using a cell-free in vitro translation system and firefly luciferase (Fluc) mRNA as a template (Fig. 1e), as we have used previously for assessing the activity of other PrAMPs[4],[6],[8],[9],[32],[33].
The in vitro translation assay was carried out as described previously[4],[8] using the E. coli PURExpress system (New England Biolabs (NEB), E6800S). Then, 1 µl of antibiotic solution was added to 5 µl of PURExpress reaction mix. Each reaction contained 10 ng μl^−1 of mRNA encoding the Fluc, which was in vitro transcribed from a pIVEX-2.3MCS vector containing the Fluc gene using T7 polymerase (Thermo Fisher Scientific). The reaction mix was incubated for 30 minutes at 32 °C while shaking (600 r.p.m.). Reactions were stopped with 5 µl of kanamycin (50 mg ml^−1) and transferred into a 96-well microplate (Greiner Lumitrac, non-binding, white, chimney). Next, 40 µl of luciferase assay substrate solution (Promega, E1501) was added, and luminescence was measured using a plate reader (Tecan Infinite 200 PRO). Nuclease-free water was added instead of antibiotic as control. Absolute luminescence values were normalized using reactions without antibiotic. All assays were done as triplicates with individually prepared reaction mix.

[6] = system: E. coli Keio ∆sbmA (BW25113 ΔsbmA); test: Antibiotic susceptibility (growth) assay, E. coli Keio ΔsbmA; assay type: cell-based, Escherichia coli; conditions: 30 μM peptide, average of three biological replicates
Excerpt: as §1, §2, §3

Row | Substance | IC50 [1] [µM] | Average of normalized growth ([2]; LB rich medium) [%] | Average of normalized growth ([2]; Minimal medium) [%] | growth inhibition in rich medium [2] | Relative stop band intensity signal ([3]; Fig 1f, RF1 (1X)) | Relative stop band intensity signal ([3]; Fig 1g, RF1 (10X)) | Relative stop band intensity signal [4] | maximum inhibition of in vitro translation ([5]; at the highest concentration tested of 150 μM, Fluc mRNA, luminescence) [%] | Average of normalized growth ([6]; LB rich medium) [%] | Average of normalized growth ([6]; Minimal medium) [%] | stalling of ribosomes at the stop codon ([3]; toeprinting, 30 μM peptide, 1× or 10× RF1 (trend also with ten-fold RF2)) | activity in in vitro translation assays ([5]; Fluc reporter, increasing concentrations of peptide)
1 | Bac7: type I PrAMP of mammalian origin (RRIRPRPPRLPRPRPRPLPFPRPGPRPIPRPLPFPRPGPRPIPRPLPFPRPGPRPIPRP; Bactenecin 7; UniProt P19661 131-189, looked up) | < 1 | – | – | – | – | – | – | – | – | – | – | –
2 | Dro2: naturally occurring drosocin carrying disaccharide β-D-Gal(1→3)-α-D-GalNAc attached to Thr11 (GKPRPYSPRPTSHPRPIRV; not fully specified (residue 11); UniProt P36193 22-40, looked up) | – | 92 | 25 | no inhibition | 0.3007 | 0.625 | 0.06699 | 40 | 96 | 101 | – | –
3 | Dro3: drosocin derivative bearing β-D-Maltosyl on Thr11 (GKPRPYSPRPT(β‑D‑maltosyl)SHPRPIRV; UniProt P36193 22-40, looked up) | – | 97 | 41 | no inhibition | 0.2727 | 0.5086 | 0.02902 | – | 97 | 105 | – | –
4 | Dro4: drosocin derivative bearing α-D-GlcNAc on Thr11 (GKPRPYSPRPT(α‑D‑GlcNAc)SHPRPIRV; UniProt P36193 22-40, looked up) | – | 60 | 38 | growth inhibition | 0.3375 | 0.6077 | 0.166 | – | 97 | 103 | to a lesser extent | –
5 | Dro5: drosocin derivative bearing β-D-Gal on Thr11 (GKPRPYSPRPT(βGal)SHPRPIRV; UniProt P36193 22-40, looked up) | – | 93 | 24 | no inhibition | 0.2051 | 0.5557 | 0.04941 | – | 100 | 107 | – | –
6 | Dro6: drosocin derivative bearing β-D-Glc on Thr11 (GKPRPYSPRPT(βGlc)SHPRPIRV; UniProt P36193 22-40, looked up) | – | 94 | 72 | no inhibition | 0.04582 | 0.4077 | 0.01282 | – | 99 | 106 | – | –
7 | Dro7: drosocin derivative bearing β-D-Lactosyl on Thr11 (GKPRPYSPRPT(β‑D‑lactosyl)SHPRPIRV; UniProt P36193 22-40, looked up) | – | 97 | 50 | no inhibition | 0.1333 | 0.3035 | 0.0472 | – | 101 | 109 | – | –
8 | Dro8: drosocin derivative bearing β-D-Cellobiosyl on Thr11 (GKPRPYSPRPT(β‑D‑cellobiosyl)SHPRPIRV; UniProt P36193 22-40, looked up) | – | 97 | 85 | – | 0.1518 | 0.3011 | 0.03669 | – | 102 | 112 | – | –
9 | Dro-R18A (GKPRPYSPRPTSHPRPIAV; ends and bridges not checked; UniProt P36193 22-40, looked up, variant R18A) | – | – | – | – | – | – | – | – | – | – | – | complete loss of activity
